Measured values reported in patent US20230391775A1, “SUBSTITUTED DIARYLAMINE COMPOUND, PHARMACEUTICAL COMPOSITION THEREOF, PREPARATION METHOD THEREFOR, AND USE THEREOF” (SUZHOU YABAO PHARMACEUTICAL R&D CO., LTD., priority 2020, published 2023).

Tests used:
LRRK2 G2019S = LRRK2 G2019S (Homo sapiens (Human), UniProt Q5S007, G2019S); assay: Adapta kinase assay (LRRK2_IC50 assay); format: biochemical; conditions: Adapta TR-FRET, 1 h, room temperature
Method: In the Adapta™ kinase assay method (LRRK2_IC50 assay): the kinase reaction buffer contained kinase buffer S (Life Technologies, PV5213) and 2 mM DTT (Life Technologies, P2325). The kinases LRRK2 G2019S protein (PV4881) and ERM (LRRKtide, PV5093) were derived from Life Technologies. The Adapta™ universal kinase assay kit (Life Technologies, PV5099) contained the following components: Adapta™ Eu-anti-ADP antibody (PV5097; 4 μg); 10 μM AlexaFluor®647 ADP tracer (PV5098; 200 pmol); TR-FRET dilution buffer (PV3574; 100 mL); kinase quench buffer (P2825; 1 mL); 10 mM ATP (PV3227; 500 μL); and 10 mM ADP (PV5096; 500 μL). LRRK2-IN-1 (1234480-84-2, HY-10875) was derived from MedChem Express.
Adapta™ Kinase Assay Method
Adapta® universal kinase assay method is a uniform fluorescence-based immunoassay for detecting ADP. In contrast to ATP consumption assay, Adapta® assay method was very sensitive to ADP formation, with most signal changes occurring when initially 10-20% ATP was converted to ADP. This made Adapta® universal kinase assay method very suitable for low-activity kinases.
All assays were performed at room temperature (about 21° C.) and were linearly related to time and enzyme concentration under the conditions used. 1× kinase reaction buffer was prepared from 5× kinase buffer S stock solution (listed above), and 10 mL of 1× kinase reaction buffer was prepared by the addition of 2 mL of 5× stock solution to 8 mL of H2O. To the 1× kinase reaction buffer was added 20 μL of 1 M DTT.
A kinase reaction was performed in a low-volume 384-well plate in a volume of 10 μL. Typically, a Greiner plate was used (Catalog #3674 #, low volume, white wall, 784075). Other untreated assay plates that were not tested could also be suitable. The substrate concentration in the assay was 100 μM, and the 1× kinase reaction buffer consisted of 50 mM Tris-HCl (pH 8.5), 10 mM MgCl2, 1 mM EGTA, 0.01% Brij-35 and 2 mM DTT, as well as any other additives that could be necessary for the particular kinase. The kinase reaction was allowed to proceed for 1 h at room temperature, followed by the addition of a formulation of kinase quenching buffer (EDTA; 30 mM), Eu-labeled antibody (6 nM), and tracer (18.9 nM) in TR-FRET dilution buffer (5 μL). The final concentration of the antibody in the assay wells was 2 nM, the final concentration of the tracer was 6.3 nM, and the final concentration of EDTA was 10 mM. The plate was allowed to equilibrate at room temperature for at least 30 min and then read on a plate reader configured for Adapta™ TR-FRET.
The data provided in this document were generated by using BMG LABTECH PHERAstar plate reader and using appropriate filters and instrument settings for Adapta™. Test compounds were screened in wells with 1% DMSO (final). For 8-point titration, a 5-fold serial dilution was made on the basis of a starting concentration.

[1] = Drug tissue distribution assay: brain tissue pharmacokinetics / blood-brain barrier permeability; format: in vivo; conditions: mice, single oral intragastric 30 mg/kg
Method: (§1) Test sample: compound 4, purity 99%
(§2) Preparation of test sample: 22.73 mg of compound 4 was weighed and placed in a mortar (according to the purity of 99%), and a small amount of 0.5% CMC-Na was added followed by full grinding. The mixture was then transferred to a container; the mortar was washed for 4 times; the washing solution was transferred to the container, followed by the addition of 0.5% CMC-Na until the volume of the reaction solution was 30 mL; and then a test sample suspension with a concentration of […] was prepared. The suspension was stirred with a magnetic stirrer at a rotation speed of 1200 rpm for at least 15 min prior to sampling for analysis and administration, with fresh preparation just prior to use.
(§3) Route of administration: oral intragastric administration
(§4) Frequency and dose of administration: single administration at 30 mg/kg (40 mL/kg)
(§5) After drug administration, 0.4 mL of blood was collected from the heart of each group of animals at corresponding time points of 0.25 h, 0.5 h, 1 h, 2 h, 4 h, 6 h, 8 h, and 24 h, respectively, the animals were anesthetized by intraperitoneal injection of 50 mg/kg Zoletil, and then put to death by bleeding. The brain, lung, and kidney of each animal were taken out, washed with normal saline, dried off with filter paper, and put into a cryopreservation tube. The cryopreservation tube was temporarily placed in dry ice, and stored at −60° C. or below for 12 h.
(§6) The collected blood was anticoagulated with EDTA-K2, then temporarily placed in wet ice, and then centrifuged for 10 min at 4° C. and at 2600 g within 2 h. The plasma was temporarily placed in dry ice, and stored in a refrigerator at −60° C. or below within 14 h.
(§7) Analytical method: The drug concentrations in plasma and brain tissue were measured by the following LC-MS/MS method. • Instrument: Shimadzu LC-MS/MS (Model: LCMS-8060); • Chromatographic column: GL Sciences Inc., InertSustain, C18, 3 μm, 2.1×50 mm; • Ion detection: positive ion mode, m/z 453.10/338.05; • Mobile phase A: aqueous solution containing 0.1% TFA; mobile phase B: methanol solution containing 0.1% TFA;
(§8) Pharmacokinetic parameter evaluation index: pharmacokinetic parameters were calculated in a non-compartmental model using WinNonlin 6.4.

[2] = Drug tissue distribution assay: plasma pharmacokinetics; format: in vivo; conditions: mice, single oral intragastric 30 mg/kg
Method: as §1, §2, §3, §4, §5, §6, §7, §8

LRRK2 G2019S, sequence (Q5S007 whole entry G2019S): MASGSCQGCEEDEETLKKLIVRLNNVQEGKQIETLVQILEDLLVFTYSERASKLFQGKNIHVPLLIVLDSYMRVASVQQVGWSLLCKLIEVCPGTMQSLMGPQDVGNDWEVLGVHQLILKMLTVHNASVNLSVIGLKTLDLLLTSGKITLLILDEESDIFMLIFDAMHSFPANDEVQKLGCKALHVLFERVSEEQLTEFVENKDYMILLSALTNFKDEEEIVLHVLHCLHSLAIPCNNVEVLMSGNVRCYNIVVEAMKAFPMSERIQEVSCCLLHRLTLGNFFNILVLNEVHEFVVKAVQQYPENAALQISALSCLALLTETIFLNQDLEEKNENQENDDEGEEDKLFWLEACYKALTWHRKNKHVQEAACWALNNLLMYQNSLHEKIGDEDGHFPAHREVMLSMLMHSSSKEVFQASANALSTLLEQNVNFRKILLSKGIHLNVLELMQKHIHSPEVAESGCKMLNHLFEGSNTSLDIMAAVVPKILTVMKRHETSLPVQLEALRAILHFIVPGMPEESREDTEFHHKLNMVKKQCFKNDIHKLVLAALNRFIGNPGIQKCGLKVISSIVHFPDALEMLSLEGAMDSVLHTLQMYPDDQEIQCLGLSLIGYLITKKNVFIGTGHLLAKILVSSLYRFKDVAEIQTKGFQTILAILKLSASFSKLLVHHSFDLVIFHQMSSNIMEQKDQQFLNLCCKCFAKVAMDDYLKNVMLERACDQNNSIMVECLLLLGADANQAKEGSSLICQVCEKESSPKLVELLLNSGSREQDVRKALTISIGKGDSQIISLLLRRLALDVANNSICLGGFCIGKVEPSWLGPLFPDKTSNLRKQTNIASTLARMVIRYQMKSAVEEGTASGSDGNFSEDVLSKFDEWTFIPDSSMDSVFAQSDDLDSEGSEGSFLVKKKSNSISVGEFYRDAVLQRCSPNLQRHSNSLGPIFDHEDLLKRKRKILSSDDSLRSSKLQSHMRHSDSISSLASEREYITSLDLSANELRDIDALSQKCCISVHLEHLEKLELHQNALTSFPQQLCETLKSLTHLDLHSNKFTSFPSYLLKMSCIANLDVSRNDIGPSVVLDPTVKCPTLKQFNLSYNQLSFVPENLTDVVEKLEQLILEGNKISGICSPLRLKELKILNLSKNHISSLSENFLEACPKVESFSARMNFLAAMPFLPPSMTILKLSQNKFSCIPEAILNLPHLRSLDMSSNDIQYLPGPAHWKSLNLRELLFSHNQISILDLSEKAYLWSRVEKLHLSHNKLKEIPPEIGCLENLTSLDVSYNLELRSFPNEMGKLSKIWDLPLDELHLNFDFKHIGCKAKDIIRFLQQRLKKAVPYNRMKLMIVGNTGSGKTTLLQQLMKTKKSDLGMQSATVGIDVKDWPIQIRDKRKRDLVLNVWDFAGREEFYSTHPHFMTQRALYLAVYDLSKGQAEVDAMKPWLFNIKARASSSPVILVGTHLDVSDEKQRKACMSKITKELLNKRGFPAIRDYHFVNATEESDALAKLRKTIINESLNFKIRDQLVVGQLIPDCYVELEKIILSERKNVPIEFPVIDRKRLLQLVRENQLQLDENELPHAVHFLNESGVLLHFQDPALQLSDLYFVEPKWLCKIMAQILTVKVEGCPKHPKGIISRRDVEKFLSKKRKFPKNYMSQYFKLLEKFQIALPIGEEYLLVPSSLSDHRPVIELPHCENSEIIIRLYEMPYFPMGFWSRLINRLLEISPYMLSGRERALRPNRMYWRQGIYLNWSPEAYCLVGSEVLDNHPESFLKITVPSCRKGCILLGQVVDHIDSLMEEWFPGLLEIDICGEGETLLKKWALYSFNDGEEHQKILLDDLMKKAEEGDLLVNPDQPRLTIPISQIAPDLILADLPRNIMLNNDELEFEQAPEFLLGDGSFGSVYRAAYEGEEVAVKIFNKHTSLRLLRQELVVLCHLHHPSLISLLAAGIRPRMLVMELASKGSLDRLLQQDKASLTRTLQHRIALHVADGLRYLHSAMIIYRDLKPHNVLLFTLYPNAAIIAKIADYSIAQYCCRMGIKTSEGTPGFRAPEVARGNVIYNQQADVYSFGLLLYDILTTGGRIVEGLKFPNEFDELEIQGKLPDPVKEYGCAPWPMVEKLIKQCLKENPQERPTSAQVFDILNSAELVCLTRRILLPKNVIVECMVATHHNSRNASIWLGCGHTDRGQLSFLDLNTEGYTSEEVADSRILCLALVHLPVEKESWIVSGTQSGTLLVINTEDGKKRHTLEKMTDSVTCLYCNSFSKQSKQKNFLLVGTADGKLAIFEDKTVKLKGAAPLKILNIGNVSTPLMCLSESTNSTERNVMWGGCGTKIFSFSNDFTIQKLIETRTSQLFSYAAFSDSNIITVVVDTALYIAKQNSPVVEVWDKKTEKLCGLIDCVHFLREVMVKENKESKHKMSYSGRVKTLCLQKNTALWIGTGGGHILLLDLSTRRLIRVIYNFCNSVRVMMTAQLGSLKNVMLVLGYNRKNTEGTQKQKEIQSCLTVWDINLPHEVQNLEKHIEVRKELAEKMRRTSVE

IC50 (LRRK2 G2019S) [µM] | Compound | also measured
0.055 | CCOc1nc(Nc2ccc(C(C)(N3CCOCC3)C(F)(F)F)cc2OC)nc2[nH]ccc12 (single isomer, unassigned) [Compound 2, 4-ethoxy-N-(2-methoxy-4-(1,1,1-trifluoro-2-morpholinylpropan-2-yl)phenyl)-7H-pyrrolo[2,3-d]pyrimidin-2-amine] | –
0.235 | CCc1nc(Nc2ccc(C(N3CCOCC3)C(F)(F)F)cc2OC)nc2[nH]ccc12 (single isomer, unassigned) [Compound 20] | –
0.119 | CCOc1nc(Nc2ccc(C(N3CCOCC3)C(F)(F)F)cc2Cl)nc2[nH]ccc12 (single isomer, unassigned) [Compound 21] | –
0.005 | COc1cc(C(N2CCOCC2)C(F)(F)F)ccc1Nc1nc(OCCO)c2cc[nH]c2n1 (single isomer, unassigned) [Compound 28] | –
0.007 | CCOc1nc(Nc2ccc(C3(N4CCOCC4)CC3)cc2OC)nc2[nH]ccc12 [Compound 3, 4-ethoxy-N-(2-methoxy-4-(1-morpholinocyclopropyl)phenyl)-7H-pyrrolo[2,3-d]pyrimidin-2-amine] | –
0.012 | COc1cc(C(N2CCOCC2)C(F)(F)F)ccc1Nc1nc(OCC(F)(F)F)c2cc[nH]c2n1 (single isomer, unassigned) [Compound 6] | –
0.034 | CNc1nc(Nc2cc(F)c(C3(N4CCOCC4)CC3)cc2OC)ncc1C(F)(F)F [Compound 37] | –
0.012 | CCOc1nc(Nc2ccc(C(N3CCN(C)CC3)C(F)(F)F)cc2OC)nc2[nH]ccc12 (single isomer, unassigned) [Compound 29] | –
0.006 | COCCOc1nc(Nc2ccc(C(N3CCOCC3)C(F)(F)F)cc2OC)nc2[nH]ccc12 (single isomer, unassigned) [Compound 11] | –
0.328 | COc1cc(C(N2CCOCC2)C(F)(F)F)ccc1Nc1ncc2cc[nH]c2n1 (single isomer, unassigned) [Compound 15] | –
0.204 | COc1cc(C(N2CCOCC2)C(F)(F)F)ccc1Nc1nc(C)c2cc[nH]c2n1 (single isomer, unassigned) [Compound 17] | –
0.141 | CCOc1nc(Nc2ccc(C(N3CCOCC3)C(F)(F)F)cc2CC)nc2[nH]ccc12 (single isomer, unassigned) [Compound 25] | –
0.005 | COc1cc(C(N2CCOCC2)C(F)(F)F)ccc1Nc1nc(OCCO)c2cc[nH]c2n1 (single isomer, unassigned) [Compound 27] | –
0.007 | CCOc1nc(Nc2ccc(C(N3C[C@@H]4C[C@H]3CO4)C(F)(F)F)cc2OC)nc2[nH]ccc12 (single isomer, unassigned) [Compound 9] | –
0.027 | CCOc1nc(Nc2ccc(C(N3CCN4CCC[C@@H]4C3)C(F)(F)F)cc2OC)nc2[nH]ccc12 (single isomer, unassigned) [Compound 32] | –
0.43 | COc1cc(C(N2CCOCC2)C(F)(F)F)ccc1Nc1ncc2cc[nH]c2n1 (single isomer, unassigned) [Compound 16] | –

Compound | IC50 (LRRK2 G2019S) [µM] | also measured
CCOc1nc(Nc2ccc(C(N3CCOCC3)C(F)(F)F)cc2OC)nc2[nH]ccc12 (single isomer, unassigned) [Compound 4, 4-ethoxy-N-(2-methoxy-4-(2,2,2-trifluoro-1-morpholinoethyl)phenyl)-7H-pyrrolo[2,3-d]pyrimidin-2-amine] | 0.017 | AUC0-t ([1]; brain tissue): 6457 ng · h · g^−l; AUC0-∞ ([1]; brain tissue): 7409 ng · h · g^−l; Cmax ([1]; brain tissue): 1898 ng · g^−l; blood-brain barrier permeability ([1]; result in words): excellent blood-brain barrier permeability; Kp ([1]; mouse, brain / plasma, read-out: AUCbrain/AUCplasma): ~2; Tmax ([1]; mouse, brain tissue): 1 h; AUC0-t [2]: 3248 ng · h · mL^−l; AUC0-∞ [2]: 3257 ng · h · mL^−l; Cmax [2]: 597 ng · mL^−l; Kel [2]: 0.247 h^−l; CL/F ([2]; mouse): 154 mL/min/kg; Tmax ([2]; mouse): 1 h; half-life ([2]; mouse): 2.8 h; MRT last ([2]; mouse, read-out: MRT0-t): 4.5 h; MRT inf ([2]; mouse, read-out: MRT0-∞): 4.56 h; Vd/F ([2]; mouse, read-out: Vz/F): 37.3 L/kg
